# Test results from the SangsterLogP compilation.
# Columns and labels:
# [1] = method code SF, from DOI: 10.1002/tera.1420200312, PMID: 120615; conditions: pH 7.4
logP,logD [1],SMILES
–,3.92,Cc1cc(O)c(C(C)C)cc1Cl
3.05,–,CCCCCCCC(=O)O
–,4.76,CC/C(=C(/CC)c1ccc(O)cc1)c1ccc(O)cc1
4.2,–,O=C(O)c1cc(I)cc(I)c1O

# Further lines, the compound ahead of its results:
SMILES,logP,logD [1]
O=C(Nc1ccccc1)c1ccccc1O,3.25,–
CCCCC(=O)O,1.39,–
C=CCCCCCCCCC(=O)O,3.86,–
CCC(=O)O,0.32,–
Cc1ccccc1O,–,1.93
O=C(O)c1cccnc1,-0.46,–
Oc1ccc(Cl)cc1Cc1cc(Cl)ccc1O,4.26,–
